Test results as given in ChEMBL document CHEMBL1127887, “Synthesis and in vitro cardiovascular activity of 4-aryl-2,3,3a,4-tetrahydro-1h-pyrrolo[2,1-c][1,4]benzothiazin-1-ones and 7-acetoxy-6-phenyl-7a,8,9,10-tetrahydropyrrolo [2,1,-d][1,5]benzothiazepin-10-one” (Bioorg Med Chem Lett, 1994).

Columns and labels:
Cavia porcellus [1] = species: Cavia porcellus; experiment: Negative chronotropic activity on isolated guinea pig right atrium at 5x10E-5 mol/L concentration was determined; assay type: functional, Cardiac atrium
[2] = target: T1, Voltage-gated L-type calcium channel (Rattus norvegicus, UniProt P22002+Q02485+P27732); experiment: Inhibitory constant against calcium channel receptors (CCRs); assay type: protein assay
Cavia porcellus [3] = species: Cavia porcellus; experiment: Negative inotropic activity on isolated guinea pig left atrium at 10E-4 mol/L concentration was determined; assay type: functional, Cardiac atrium
[4] = target: T1, Voltage-gated L-type calcium channel; experiment: Displacement of [3H]nitrendipine from calcium channel receptors (CCRs); assay type: protein assay
Cavia porcellus [5] = species: Cavia porcellus; experiment: Calcium antagonist activity on K+ depolarized guinea pig aortic strips at 10E-4 mol/L concentration was determined; assay type: functional; conditions: Aorta
Cavia porcellus [6] = species: Cavia porcellus; experiment: Calcium antagonist potency on K+ depolarized guinea pig aortic strips; assay type: functional; conditions: Aorta
Cavia porcellus [7] = species: Cavia porcellus; experiment: Negative inotropic potency on isolated guinea pig left atrium; assay type: functional, Cardiac atrium
[8] = target: T1, Voltage-gated L-type calcium channel; experiment: Inhibitory constant against calcium channel receptors (CCRs) from rat cortex homogenate
[9] = target: T1, Voltage-gated L-type calcium channel; experiment: Displacement of [3H]nitrendipine from calcium channel receptors (CCRs) from rat cortex homogenate

Ki [2] [µM]	IC50 [4] [µM]	IC50 (Cavia porcellus [6]) [µM]	Ki [8] [µM]	IC50 [9] [µM]	Compound	Decrease (Cavia porcellus [1]) [%]	Decrease (Cavia porcellus [3]) [%]	inhibition at 100 µM (Cavia porcellus [5]) [%]	ED50 (Cavia porcellus [7]) [uM l-1]
0.675	1.8	16.6	–	–	COc1ccc(C2Sc3ccccc3N3C(=O)CCC23)cc1 (stereo unspecified)	39	60	32	1.2
–	–	20	0.00029	0.00078	O=C1CCC2C(c3ccccc3)Sc3ccccc3N12 (stereo unspecified)	20	66	37	0.23
0.581	1.55	32.4	–	–	CC(=O)OC1=C(c2ccccc2)Sc2ccccc2N2C(=O)CCC12 (stereo unspecified)	27	96	26	1.1
–	–	2.6	–	–	COc1ccc([C@@H]2Sc3ccccc3N(CCN(C)C)C(=O)[C@@H]2OC(C)=O)cc1 [DILTIAZEM]	94	78	88	0.79
